Measured values: PubChem BioAssay (NCI)
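These data come from cells grown in 96-well plates and exposed to compound for 48 hours at five concentrations. TGI denotes the concentration required for complete inhibition of growth.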

Experiments:
Assay in all cases: inhibition of tumour cell growth, NCI panel, 48 h
A549 NSCLC = system: A549 NSCLC
DMS 273 small cell lung = system: DMS 273 small cell lung
SK-MEL-28 melanoma = system: SK-MEL-28 melanoma
RXF-631 renal = system: RXF-631 renal
KM12 colon = system: KM12 colon
M14 melanoma = system: M14 melanoma
SR leukemia = system: SR leukemia
SF-295 CNS = system: SF-295 CNS
HOP-62 NSCLC = system: HOP-62 NSCLC
ACHN renal = system: ACHN renal
OVCAR-3 ovarian = system: OVCAR-3 ovarian
UACC-62 melanoma = system: UACC-62 melanoma
M19-MEL melanoma = system: M19-MEL melanoma
RPMI-8226 leukemia = system: RPMI-8226 leukemia
OVCAR-5 ovarian = system: OVCAR-5 ovarian
HCC-2998 colon = system: HCC-2998 colon
OVCAR-8 ovarian = system: OVCAR-8 ovarian
786-0 renal = system: 786-0 renal
MOLT-4 leukemia = system: MOLT-4 leukemia
K-562 leukemia = system: K-562 leukemia
SK-OV-3 ovarian = system: SK-OV-3 ovarian
U251 CNS = system: U251 CNS
KM20L2 colon = system: KM20L2 colon
HOP-18 NSCLC = system: HOP-18 NSCLC
IGROV1 ovarian = system: IGROV1 ovarian
UACC-257 melanoma = system: UACC-257 melanoma
CCRF-CEM leukemia = system: CCRF-CEM leukemia
SNB-75 CNS = system: SNB-75 CNS
EKVX NSCLC = system: EKVX NSCLC
HT29 colon = system: HT29 colon
SK-MEL-5 melanoma = system: SK-MEL-5 melanoma
NCI-H23 lung = system: NCI-H23 lung
HOP-92 NSCLC = system: HOP-92 NSCLC
RXF 393 renal = system: RXF 393 renal
TK-10 renal = system: TK-10 renal
LXFL 529 NSCLC = system: LXFL 529 NSCLC
NCI-H226 lung = system: NCI-H226 lung
SNB-78 CNS = system: SNB-78 CNS
SF-268 CNS = system: SF-268 CNS
NCI-H460 lung = system: NCI-H460 lung
SK-MEL-2 melanoma = system: SK-MEL-2 melanoma
HCT-116 colon = system: HCT-116 colon
OVCAR-4 ovarian = system: OVCAR-4 ovarian
DLD-1 colon = system: DLD-1 colon
UO-31 renal = system: UO-31 renal
LOX IMVI melanoma = system: LOX IMVI melanoma
MALME-3M melanoma = system: MALME-3M melanoma
SN12C renal = system: SN12C renal
SF-539 CNS = system: SF-539 CNS
COLO 205 colon = system: COLO 205 colon
DMS 114 small cell lung = system: DMS 114 small cell lung
HL-60(TB) leukemia = system: HL-60(TB) leukemia
HCT-15 colon = system: HCT-15 colon
A498 renal = system: A498 renal
SW-620 colon = system: SW-620 colon
XF 498 CNS = system: XF 498 CNS
CAKI-1 renal = system: CAKI-1 renal
SNB-19 CNS = system: SNB-19 CNS
NCI-H522 lung = system: NCI-H522 lung

`O=S(=O)(N/N=C/c1cccc(/C=N/NS(=O)(=O)c2ccccc2)c1)c1ccccc1` was tested, and the TGI (A549 NSCLC) was > 100 µM, the TGI (DMS 273 small cell lung) was > 100 µM and the TGI (SK-MEL-28 melanoma) was > 100 µM. For the same compound, the TGI (RXF-631 renal) was > 100 µM, the TGI (KM12 colon) was > 100 µM and the TGI (M14 melanoma) was > 100 µM. The TGI (SR leukemia) was > 100 µM, the TGI (SF-295 CNS) was > 100 µM and the TGI (HOP-62 NSCLC) was > 100 µM. The TGI (ACHN renal) was > 100 µM, the TGI (OVCAR-3 ovarian) was > 100 µM and the TGI (UACC-62 melanoma) was > 100 µM. For the same compound, the TGI (M19-MEL melanoma) was > 100 µM, the TGI (RPMI-8226 leukemia) was > 100 µM and the TGI (OVCAR-5 ovarian) was > 100 µM. For the same compound, the TGI (HCC-2998 colon) was > 100 µM, the TGI (OVCAR-8 ovarian) was > 100 µM and the TGI (786-0 renal) was > 100 µM. The TGI (MOLT-4 leukemia) was > 100 µM, the TGI (K-562 leukemia) was > 100 µM and the TGI (SK-OV-3 ovarian) was > 100 µM. The TGI (U251 CNS) was > 100 µM, the TGI (KM20L2 colon) was > 100 µM and the TGI (HOP-18 NSCLC) was > 100 µM. For the same compound, the TGI (IGROV1 ovarian) was > 100 µM, the TGI (UACC-257 melanoma) was > 100 µM and the TGI (CCRF-CEM leukemia) was > 100 µM. The TGI (SNB-75 CNS) was > 100 µM, the TGI (EKVX NSCLC) was > 100 µM and the TGI (HT29 colon) was > 100 µM. For the same compound, the TGI (SK-MEL-5 melanoma) was > 100 µM, the TGI (NCI-H23 lung) was > 100 µM and the TGI (HOP-92 NSCLC) was 97.2 µM. The TGI (RXF 393 renal) was > 100 µM, the TGI (TK-10 renal) was > 100 µM and the TGI (LXFL 529 NSCLC) was > 100 µM. The TGI (NCI-H226 lung) was > 100 µM, the TGI (SNB-78 CNS) was > 100 µM and the TGI (SF-268 CNS) was > 100 µM. The TGI (NCI-H460 lung) was > 100 µM, the TGI (SK-MEL-2 melanoma) was > 100 µM and the TGI (HCT-116 colon) was > 100 µM. For the same compound, the TGI (OVCAR-4 ovarian) was > 100 µM, the TGI (DLD-1 colon) was > 100 µM and the TGI (UO-31 renal) was > 100 µM. For the same compound, the TGI (LOX IMVI melanoma) was > 100 µM, the TGI (MALME-3M melanoma) was > 100 µM and the TGI (SN12C renal) was > 100 µM. The TGI (SF-539 CNS) was > 100 µM, the TGI (COLO 205 colon) was > 100 µM and the TGI (DMS 114 small cell lung) was > 100 µM. The TGI (HL-60(TB) leukemia) was > 100 µM, the TGI (HCT-15 colon) was > 100 µM and the TGI (A498 renal) was > 100 µM.
With `C=C(C)CCOC(c1ccccc1)(c1ccccc1)c1ccccc1` the TGI (A549 NSCLC) was > 100 µM, the TGI (SW-620 colon) was > 100 µM and the TGI (SK-MEL-28 melanoma) was > 100 µM. For the same compound, the TGI (RXF-631 renal) was > 100 µM, the TGI (KM12 colon) was > 100 µM and the TGI (M14 melanoma) was > 100 µM. The TGI (XF 498 CNS) was 90.3 µM, the TGI (SF-295 CNS) was > 100 µM and the TGI (CAKI-1 renal) was > 100 µM. The TGI (HOP-62 NSCLC) was > 100 µM, the TGI (ACHN renal) was > 100 µM and the TGI (OVCAR-3 ovarian) was > 100 µM. The TGI (UACC-62 melanoma) was > 100 µM, the TGI (M19-MEL melanoma) was > 100 µM and the TGI (RPMI-8226 leukemia) was > 100 µM. For the same compound, the TGI (OVCAR-5 ovarian) was > 100 µM, the TGI (HCC-2998 colon) was > 100 µM and the TGI (OVCAR-8 ovarian) was > 100 µM. For the same compound, the TGI (786-0 renal) was > 100 µM, the TGI (MOLT-4 leukemia) was > 100 µM and the TGI (K-562 leukemia) was > 100 µM. For the same compound, the TGI (SK-OV-3 ovarian) was > 100 µM, the TGI (SNB-19 CNS) was > 100 µM and the TGI (U251 CNS) was > 100 µM. For the same compound, the TGI (KM20L2 colon) was > 100 µM, the TGI (IGROV1 ovarian) was > 100 µM and the TGI (UACC-257 melanoma) was 80.5 µM. For the same compound, the TGI (CCRF-CEM leukemia) was > 100 µM, the TGI (SNB-75 CNS) was > 100 µM and the TGI (HT29 colon) was 70.6 µM. For the same compound, the TGI (SK-MEL-5 melanoma) was > 100 µM, the TGI (NCI-H23 lung) was > 100 µM and the TGI (HOP-92 NSCLC) was > 100 µM. The TGI (RXF 393 renal) was 82.8 µM, the TGI (TK-10 renal) was > 100 µM and the TGI (LXFL 529 NSCLC) was > 100 µM. For the same compound, the TGI (NCI-H226 lung) was 97.8 µM, the TGI (SNB-78 CNS) was > 100 µM and the TGI (SF-268 CNS) was > 100 µM. The TGI (NCI-H460 lung) was > 100 µM, the TGI (HCT-116 colon) was 76.6 µM and the TGI (OVCAR-4 ovarian) was > 100 µM. For the same compound, the TGI (DLD-1 colon) was > 100 µM, the TGI (UO-31 renal) was > 100 µM and the TGI (LOX IMVI melanoma) was 79.2 µM. The TGI (MALME-3M melanoma) was > 100 µM, the TGI (SN12C renal) was > 100 µM and the TGI (SF-539 CNS) was > 100 µM. For the same compound, the TGI (COLO 205 colon) was > 100 µM, the TGI (HL-60(TB) leukemia) was > 100 µM and the TGI (HCT-15 colon) was > 100 µM. It also gave a TGI (NCI-H522 lung) of 76.3 µM.
